Test results reported in article PMC7979765, “trans-Translation inhibitors bind to a novel site on the ribosome and clear Neisseria gonorrhoeae in vivo” (Nature Communications, 2021).
≈ marks a conversion by molar mass, not a printed value. Where “and” joins values, the source holds several entries; their conditions need not be identical. Equal values may be shown once. Read-outs that look alike come from different tables or passages of the source.

Legend:
Klebsiella pneumoniae = experiment: MIC, microbroth dilution; format: cell-based
trans-translation [1] = experiment: In vitro trans-translation assay (S12 extract, nanoluc-ns, tmRNA-nl); format: biochemical, Escherichia coli; set-up: background subtraction: unit not given here; details: for normalized: activity, 0 = 100
From the text: The in vitro trans-translation assay is designed to produce the first 157 amino acids of nano-luciferase from a non-stop mRNA (nanoluc-ns) and add the C-terminal peptide […] via a mutant version of E. coli tmRNA (tmRNA-nl) to reconstitute an active nano-luciferase[45]. In this assay, the tagged nano-luciferase gene has >30,000-fold increase in activity over the peptide made in the absence of tmRNA-nl.
S12 lysates were made according to the procedure of Kim, et al.[46]. Briefly, a culture of E. coli BL21 (DE3) cells containing a pET28 plasmid carrying the E. coli T7 polymerase gene was grown at 37 °C to an OD600 = 0.8, induced with 1 mM IPTG and grown for an additional 3 h. Cells were harvested by centrifugation at 20,000 × g for 10 min at 4 °C and the pellet was resuspended in buffer A (20 mM Tris-acetate (pH 8.2), 14 mM Mg(OAc)2, 60 mM potassium glutamate, 1 mM DTT). Cells were lysed by sonication, the lysate was clarified by centrifugation at 12,000 × g for 10 min, and the supernatant was stored at −80 °C.
E. coli SmpB was purified as previously described. tmRNA-nl, a variant of E. coli tmRNA encoding the final 11 residues of nano-luciferase, was transcribed from the tmRNA-nl synthetic DNA sequence in vitro, purified, and folded as previously described for wild-type E. coli tmRNA[3]. The nanoluc-stop template DNA was prepared as previously described[3] by PCR amplification from pMC1 using T7 universal and nanoluc-stop primers. The nanoluc-ns was prepared in a similar manner using pMC1 with T7 universal and nanoluc-ns primers.
For in vitro trans-translation, tmRNA-nl and SmpB were premixed and stored on ice. S12 lysate (2 μl), freshly made polymix buffer (2 μl)[47] (final reaction concentrations 5 mM Hepes pH 7.6, 5 mM NH4Cl, 0.5 mM CaCl2, 1.5 mm MgCl2, 1 mM DTT, 8 mm putrescene, 2 mm ATP, 2 mM GTP, 1 mM CTP, 1 mM UTP, 0.3 mM each amino acid, 3 mg/ml E. coli tRNAs), nanoluc-ns template (0.5 μl; 60 ng) and 2 µl water were mixed and incubated at 37 °C for 5 min. This solution was dispensed to tubes containing 0.5 μl of different concentrations of an inhibitor prepared in 75% acetonitrile, 25% water, and incubated at 37 °C for 5 min. The tmRNA-nl/SmpB mixture (0.5 μl each, 2 μM final) was added to each tube and the samples were incubated at 37 °C for 1.5 h. NanoLuc substrate (Promega) was prepared according to the manufacturer’s instructions, one volume of this substrate solution was added to each sample tube, and the reactions transferred to a white 96-well plate. Luminescence readings were obtained using the SpectraMax i3 microplate reader. Data analysis was performed using GraphPad Prism 8.

Staphylococcus aureus = experiment: MIC, microbroth dilution; format: cell-based
Escherichia coli = experiment: microbe, parasite or virus in culture; format: cell-based
trans-translation [2] = experiment: microbe, parasite or virus in culture; format: cell-based, Escherichia coli

O=C(Nc1nnc(-c2ccc(F)cc2)o1)N1CCc2ccccc2C1 [MBX-4132]
MIC (Klebsiella pneumoniae; Klebsiella pneumoniae ATCC 13883, replicates): ≥34 µg/mL
MIC (Klebsiella pneumoniae; Klebsiella pneumoniae, ATCC13883, strain ATCC 13883, read-out: MIC): ≥ 34 µg/mL
normalized (trans-translation [1]; [4132] 0.01): 102.817 and 102.626 and 90.8451
background subtraction (trans-translation [1]; [4132] 0.05): 284
raw luminescence read (rlu) (trans-translation [1]; [4132] 0.05): 319 rlu
normalized (trans-translation [1]; [4132] 0.05): 66.6667
background subtraction (trans-translation [1]; [4132] 0.1): 337 and 425 and 284
raw luminescence read (rlu) (trans-translation [1]; [4132] 0.1): 443 rlu and 372 rlu and 319 rlu
normalized (trans-translation [1]; [4132] 0.1): 59.331 and 41.3424 and 66.6667
background subtraction (trans-translation [1]; [4132] 0.5): 266 and 178
raw luminescence read (rlu) (trans-translation [1]; [4132] 0.5): 301 rlu and 213 rlu
normalized (trans-translation [1]; [4132] 0.5): 46.831 and 41.784
background subtraction (trans-translation [1]; [4132] 1): 213 and 266 and 426
raw luminescence read (rlu) (trans-translation [1]; [4132] 1): 248 rlu and 284 rlu and 461 rlu
background subtraction (trans-translation [1]; [4132] 2): 302 and 230
raw luminescence read (rlu) (trans-translation [1]; [4132] 2): 337 rlu and 248 rlu
IC50 (trans-translation [1]; in vitro reconstituted assay): 400 nM
MIC (Staphylococcus aureus; Staphylococcus aureus ATCC 25923, replicates): 8.46 µg/mL (≈ 25 µM)
MIC (Staphylococcus aureus; Staphylococcus aureus ATCC 35556, replicates): 4.23 µg/mL (≈ 12.5 µM)
MIC (Staphylococcus aureus; Staphylococcus aureus BAA-1717, replicates): 1 µg/mL (≈ 2.96 µM)
MIC (Staphylococcus aureus; Staphylococcus aureus MRSA-1094, replicates): 2.11 µg/mL and 4.23 µg/mL
MIC (Staphylococcus aureus; Staphylococcus aureus MRSA-1234547263, replicates): 2.11 µg/mL and 4.23 µg/mL
MIC (Staphylococcus aureus; Staphylococcus aureus MSSA, replicates): 2.11 µg/mL and 4.23 µg/mL
MIC (Staphylococcus aureus; Staphylococcus aureus N315, NRS-70, replicates): 8.46 µg/mL (≈ 25 µM)
MIC (Staphylococcus aureus; Staphylococcus aureus NRS-77, replicates): 2.11 µg/mL and 4.23 µg/mL
MIC (Staphylococcus aureus; Staphylococcus aureus THC1516, replicates): 0.5 µg/ml (3×) and 1 µg/ml (2×)
MIC (Staphylococcus aureus; Staphylococcus aureus, ATCC25923, Staphylococcus aureus ATCC 25923, replicates, read-out: MIC): 4.23 µg/mL (≈ 12.5 µM)
MIC (Staphylococcus aureus; Staphylococcus aureus, ATCC25923, strain ATCC 25923, read-out: MIC): 6.3 µg/mL (≈ 18.6 µM)
MIC (Staphylococcus aureus; Staphylococcus aureus, ATCC35556, Staphylococcus aureus ATCC 35556, replicates, read-out: MIC): 4.23 µg/mL (≈ 12.5 µM)
MIC (Staphylococcus aureus; Staphylococcus aureus, ATCC35556, strain ATCC 35556, read-out: MIC): 4.2 µg/mL (≈ 12.4 µM)
MIC (Staphylococcus aureus; Staphylococcus aureus, BAA1717, Staphylococcus aureus BAA-1717, replicates, read-out: MIC): 1 µg/mL (≈ 2.96 µM)
MIC (Staphylococcus aureus; Staphylococcus aureus, BAA-1717 / MRSA, strain BAA-1717, MRSA, read-out: MIC): 1 µg/mL (≈ 2.96 µM)
MIC (Staphylococcus aureus; Staphylococcus aureus, MRSA / NRS 70, strain N315, NRS-70, MRSA, read-out: MIC): 6.3 µg/mL (≈ 18.6 µM)
MIC (Staphylococcus aureus; Staphylococcus aureus, MRSA, strain MRSA-1094, MRSA, read-out: MIC): 3.2 µg/mL (≈ 9.46 µM)
MIC (Staphylococcus aureus; Staphylococcus aureus, MRSA, strain MRSA-1234547263, MRSA, read-out: MIC): 3.2 µg/mL (≈ 9.46 µM)
MIC (Staphylococcus aureus; Staphylococcus aureus, MRSA, strain THC1516, MRSA, read-out: MIC): 1 µg/mL (≈ 2.96 µM)
MIC (Staphylococcus aureus; Staphylococcus aureus, MSSA, strain MSSA, read-out: MIC): 3.2 µg/mL (≈ 9.46 µM)
MIC (Staphylococcus aureus; Staphylococcus aureus, NRS70, Staphylococcus aureus N315, NRS-70, replicates, read-out: MIC): 4.23 µg/mL (≈ 12.5 µM)
MIC (Staphylococcus aureus; Staphylococcus aureus, NRS77, strain NRS-77, read-out: MIC): 3.2 µg/mL (≈ 9.46 µM)
MIC (Staphylococcus aureus; Staphylococcus aureus, Staphylococcus aureus THC1516, replicates, read-out: MIC): 0.5 µg/mL (≈ 1.48 µM)
MIC (Escherichia coli; E. coli KLE701 (ΔtolC::tet), source data, individual replicates): 4.229 µg/mL (≈ 12.5 µM)
MIC (Escherichia coli; Escherichia coli KLE700, replicates): ≥34 µg/mL
MIC (Escherichia coli; Escherichia coli KLE701 (ΔtolC), replicates): 2.11 µg/ml (4×) and 4.23 µg/ml (2×)
MIC (Escherichia coli; Escherichia coli, E. coli KLE701 (ΔtolC::tet), source data, individual replicates): 2.11 µg/mL (≈ 6.25 µM)
MIC (Escherichia coli; Escherichia coli, Escherichia coli KLE700, replicates, read-out: MIC): ≥ 34 µg/mL
MIC (Escherichia coli; Escherichia coli, strain KLE700, read-out: MIC): ≥ 34 µg/mL
MIC (Escherichia coli; Escherichia coli, strain KLE701, KLE700 ΔtolC::tet): 2.8 µg/mL (≈ 8.28 µM)
IC50 (trans-translation [2]; Escherichia coli, E. coli non-stop luciferase reporter, Fig. 1B, read-out: in vivo luc-trpAt IC50): 600 nM
fold induction at 0.046875 µM (trans-translation [2]; Escherichia coli, read-out: fold induction, AVE 190919+190925, [4132] 0.046875 uM): 1.01
fold induction at 0.0625 µM (trans-translation [2]; Escherichia coli, read-out: fold induction, AVE 190919+190925, [4132] 0.0625 uM): 0.976
fold induction at 0.09375 µM (trans-translation [2]; Escherichia coli, read-out: fold induction, AVE 190919+190925, [4132] 0.09375 uM): 1.01
fold induction at 0.125 µM (trans-translation [2]; Escherichia coli, read-out: fold induction, AVE 190919+190925, [4132] 0.125 uM): 1.05
fold induction at 0.1875 µM (trans-translation [2]; Escherichia coli, read-out: fold induction, AVE 190919+190925, [4132] 0.1875 uM): 1.2
fold induction at 0.25 µM (trans-translation [2]; Escherichia coli, read-out: fold induction, AVE 190919+190925, [4132] 0.25 uM): 1.35
fold induction at 0.375 µM (trans-translation [2]; Escherichia coli, read-out: fold induction, AVE 190919+190925, [4132] 0.375 uM): 1.66
fold induction at 0.5 µM (trans-translation [2]; Escherichia coli, read-out: fold induction, AVE 190919+190925, [4132] 0.5 uM): 2
fold induction at 0.75 µM (trans-translation [2]; Escherichia coli, read-out: fold induction, AVE 190919+190925, [4132] 0.75 uM): 2.22
fold induction at 1 µM (trans-translation [2]; Escherichia coli, read-out: fold induction, AVE 190919+190925, [4132] 1 uM): 2.22
fold induction at 1.5 µM (trans-translation [2]; Escherichia coli, read-out: fold induction, AVE 190919+190925, [4132] 1.5 uM): 2.16
fold induction at 0.046875 µM (trans-translation [2]; Escherichia coli, read-out: fold induction, AVE per run, [4132] 0.046875 uM, run 190919 or 190925): 1.09
fold induction at 0.0625 µM (trans-translation [2]; Escherichia coli, read-out: fold induction, AVE per run, [4132] 0.0625 uM, run 190919 or 190925): 1.02
fold induction at 0.09375 µM (trans-translation [2]; Escherichia coli, read-out: fold induction, AVE per run, [4132] 0.09375 uM, run 190919 or 190925): 1.04
fold induction at 0.125 µM (trans-translation [2]; Escherichia coli, read-out: fold induction, AVE per run, [4132] 0.125 uM, run 190919 or 190925): 1.06
fold induction at 0.1875 µM (trans-translation [2]; Escherichia coli, read-out: fold induction, AVE per run, [4132] 0.1875 uM, run 190919 or 190925): 1.16
fold induction at 0.25 µM (trans-translation [2]; Escherichia coli, read-out: fold induction, AVE per run, [4132] 0.25 uM, run 190919 or 190925): 1.35
fold induction at 0.375 µM (trans-translation [2]; Escherichia coli, read-out: fold induction, AVE per run, [4132] 0.375 uM, run 190919 or 190925): 1.66
fold induction at 0.5 µM (trans-translation [2]; Escherichia coli, read-out: fold induction, AVE per run, [4132] 0.5 uM, run 190919 or 190925): 1.82
fold induction at 0.75 µM (trans-translation [2]; Escherichia coli, read-out: fold induction, AVE per run, [4132] 0.75 uM, run 190919 or 190925): 1.93
fold induction at 1 µM (trans-translation [2]; Escherichia coli, read-out: fold induction, AVE per run, [4132] 1 uM, run 190919 or 190925): 1.9
fold induction at 1.5 µM (trans-translation [2]; Escherichia coli, read-out: fold induction, AVE per run, [4132] 1.5 uM, run 190919 or 190925): 1.86
fold induction, AVE per run (trans-translation [2]; [4132] 0.046875 uM, run 190919 or 190925, 0.046875 µM): 0.9318
fold induction, AVE per run (trans-translation [2]; [4132] 0.0625 uM, run 190919 or 190925, 0.0625 µM): 0.9331
fold induction, AVE per run (trans-translation [2]; [4132] 0.09375 uM, run 190919 or 190925, 0.09375 µM): 0.9749
fold induction, AVE per run (trans-translation [2]; [4132] 0.125 uM, run 190919 or 190925, 0.125 µM): 1.0347
fold induction, AVE per run (trans-translation [2]; [4132] 0.1875 uM, run 190919 or 190925, 0.1875 µM): 1.234
fold induction, AVE per run (trans-translation [2]; [4132] 0.25 uM, run 190919 or 190925, 0.25 µM): 1.356
fold induction, AVE per run (trans-translation [2]; [4132] 0.375 uM, run 190919 or 190925, 0.375 µM): 1.653
fold induction, AVE per run (trans-translation [2]; [4132] 0.5 uM, run 190919 or 190925, 0.5 µM): 2.18
fold induction, AVE per run (trans-translation [2]; [4132] 0.75 uM, run 190919 or 190925, 0.75 µM): 2.51
fold induction, AVE per run (trans-translation [2]; [4132] 1 uM, run 190919 or 190925, 1 µM): 2.546
fold induction, AVE per run (trans-translation [2]; [4132] 1.5 uM, run 190919 or 190925, 1.5 µM): 2.459
